These are literature values, as cited in patent US20250312332A1, “TREATMENT OF MUSCLE FIBROSIS” (University of Newcastle upon Tyne, priority 2022, published 2025).

The structures appear in SMILES notation. Where a name gives a salt, the structure may show the parent alone. Read-outs that look alike come from different tables or passages of the source. A value given as a limit tells only on which side of the number the result lay.

For series [1] the following is noted: 0.1%, 0.3%, and 0.5%, cited from earlier work.
For the next series, the target named is ROCK1 (Homo sapiens, UniProt Q13464). To be noted: cited from earlier work.
Another series has as its target ROCK2 (Homo sapiens, UniProt O75116). To be noted: cited from earlier work.
For series [2], the target named is Leukemia-associated Rho guanine nucleotide exchange factor (LARG) (Homo sapiens, UniProt Q9NZN5). To be noted: cited from earlier work.
Another series deals with NIH 3T3 cells. To be noted: 10-30 μM, 24 hours; cited from earlier work.
The next series has as its system iNOS gene expression. To be noted: 10-100 μM; 18 hours; cited from earlier work.
The next series concerns RAW 264.7. To be noted: LPS plus INF-y; 18 hours; read-out: IC50 for accumulation of nitrite in RAW 264.7; cited from earlier work.
The next series concerns RAVSMC. Particulars: LPS plus INF-y; 18 hours; read-out: IC50 for accumulation of nitrite in RAVSMC; cited from earlier work.
The test system of series [3] is T47D and CAMA-1 breast cancer cells. To be noted: T47D and CAMA-1 cells; cited from earlier work.
The next series concerns the target RhoA (Homo sapiens, UniProt P61586). To be noted: read-out: Kd for RhoA (RhoA subfamily Rho GTPases); cited from earlier work.
Another series concerns PC-3 cell. To be noted: read-out: IC50 for PC-3 cell migration; cited from earlier work.
For another series, the system named is MKL1 expression. Particulars: 25 μM; cited from earlier work.
The next series deals with PKC. To be noted: cited from earlier work.
In a further series the test system is PKA. Particulars: cited from earlier work.
The target of series [4] is cGMP-dependent protein kinase (PKG). Particulars: cited from earlier work.
The next series relates to MLCK. Particulars: cited from earlier work; for Ki: read-out: Ki for MLCK / MLC-kinase.
The next series deals with MRCK. To be noted: read-out: IC50 against MRCK; cited from earlier work.
The target in series [5] is ROCK. To be noted: read-out: Kds, binding to ROCK; cited from earlier work.
The conditions of series [6]: in vitro; cited from earlier work.
The conditions of series [7]: spontaneously hypertensive rat; cited from earlier work.
The subject of a further series is Rho signaling. Particulars: cited from earlier work.
The conditions of series [8]: insulin-resistant mice; cited from earlier work.
Series [9] has as its system PC-3 prostate cancer cell. To be noted: in vitro; cited from earlier work.
In series [10] the test system is other Rho GTPases (such as Cdc42 or RhoA). To be noted: cited from earlier work.
For the next series, the target named is Rac1 (Homo sapiens, UniProt P63000). To be noted: cited from earlier work.
For series [11] the following is noted: monkey eyes; cited from earlier work.
A further series concerns PASMC. To be noted: cited from earlier work.
For series [12] the following is noted: after transient middle cerebral artery occlusion; cited from earlier work.
For series [13], the target named is ROCK. Particulars: read-out: Ki (ROCK / Rho kinase); cited from earlier work.
The test system of the next series is neuronal cultures. Particulars: cited from earlier work.
The test system of series [14] is myosin II light chain (MLC) phosphorylation induced by MRCKβ. Particulars: in vitro; cited from earlier work.
The target of a further series is MRCKα (Homo sapiens, UniProt Q5VT25). To be noted: cited from earlier work.
The target in the next series is HMG-COA reductase (Homo sapiens, UniProt P04035). To be noted: cited from earlier work.
Another series deals with MDA-MB-231 cells. To be noted: cited from earlier work.
A further series deals with Cdc42 (Homo sapiens, UniProt P60953). To be noted: cited from earlier work.
In another series the test system is granulocytes. Particulars: 50 μM; for 15 min; cited from earlier work.
Series [15] has as its system Rab2, Rab7, H-Ras, Rac1, Rac 2 and RhoA wild-type. Particulars: cited from earlier work.
A further series relates to rat aorta. Particulars: cited from earlier work.
The test system of series [16] is B16 melanoma. Particulars: cited from earlier work.
Series [17] deals with B16 melanoma. Particulars: cited from earlier work. The source holds these as a separate data set.
In the next series the test system is B16BL6 and 4T1 cells. Particulars: murine animal models; cited from earlier work.
Series [18] deals with Cdc42 or Rac1, nor the GEF, LARG. To be noted: cited from earlier work.
A further series addresses rat ROCK-2 (Rattus norvegicus, UniProt Q62868). Particulars: cited from earlier work.
For series [19], the system named is ROCK-mediated phosphorylation of MYPTT696. To be noted: thoracic aorta of spontaneously hypertensive rats; cited from earlier work.

ROCK2, sequence (O75116 whole entry): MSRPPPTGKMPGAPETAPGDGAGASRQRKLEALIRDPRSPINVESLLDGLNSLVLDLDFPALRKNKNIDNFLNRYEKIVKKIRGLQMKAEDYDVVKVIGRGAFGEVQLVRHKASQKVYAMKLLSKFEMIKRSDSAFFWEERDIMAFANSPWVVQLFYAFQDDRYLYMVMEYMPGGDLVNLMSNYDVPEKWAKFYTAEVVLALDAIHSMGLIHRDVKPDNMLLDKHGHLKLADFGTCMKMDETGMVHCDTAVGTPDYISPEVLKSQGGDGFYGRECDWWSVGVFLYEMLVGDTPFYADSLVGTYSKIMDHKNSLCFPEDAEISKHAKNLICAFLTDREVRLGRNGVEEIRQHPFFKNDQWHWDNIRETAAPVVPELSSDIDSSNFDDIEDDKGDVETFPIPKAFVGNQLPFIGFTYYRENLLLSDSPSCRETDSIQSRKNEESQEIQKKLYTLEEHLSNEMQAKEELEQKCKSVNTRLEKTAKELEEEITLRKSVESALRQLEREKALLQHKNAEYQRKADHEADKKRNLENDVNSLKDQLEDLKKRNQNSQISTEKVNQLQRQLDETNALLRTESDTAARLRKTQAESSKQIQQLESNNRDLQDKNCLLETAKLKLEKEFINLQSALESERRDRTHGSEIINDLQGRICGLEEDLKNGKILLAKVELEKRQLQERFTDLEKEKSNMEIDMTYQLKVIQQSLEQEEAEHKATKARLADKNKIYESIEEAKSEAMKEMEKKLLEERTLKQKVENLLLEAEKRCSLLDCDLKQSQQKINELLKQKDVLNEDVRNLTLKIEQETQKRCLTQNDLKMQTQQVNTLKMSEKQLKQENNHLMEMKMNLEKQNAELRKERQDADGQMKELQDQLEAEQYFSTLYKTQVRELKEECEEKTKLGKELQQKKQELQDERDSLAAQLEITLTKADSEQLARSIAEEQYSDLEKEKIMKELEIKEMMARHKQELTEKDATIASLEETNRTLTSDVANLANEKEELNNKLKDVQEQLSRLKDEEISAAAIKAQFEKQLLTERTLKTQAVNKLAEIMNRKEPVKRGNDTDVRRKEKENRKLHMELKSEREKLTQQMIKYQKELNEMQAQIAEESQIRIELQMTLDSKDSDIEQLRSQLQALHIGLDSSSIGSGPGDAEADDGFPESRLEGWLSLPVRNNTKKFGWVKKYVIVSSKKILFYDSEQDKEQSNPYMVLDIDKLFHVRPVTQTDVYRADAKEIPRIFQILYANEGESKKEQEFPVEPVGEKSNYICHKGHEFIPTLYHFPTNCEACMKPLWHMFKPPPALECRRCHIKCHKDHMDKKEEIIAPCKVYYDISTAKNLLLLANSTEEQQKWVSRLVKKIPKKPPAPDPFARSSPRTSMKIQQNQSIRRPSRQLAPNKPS
ROCK1, sequence (Q13464 whole entry): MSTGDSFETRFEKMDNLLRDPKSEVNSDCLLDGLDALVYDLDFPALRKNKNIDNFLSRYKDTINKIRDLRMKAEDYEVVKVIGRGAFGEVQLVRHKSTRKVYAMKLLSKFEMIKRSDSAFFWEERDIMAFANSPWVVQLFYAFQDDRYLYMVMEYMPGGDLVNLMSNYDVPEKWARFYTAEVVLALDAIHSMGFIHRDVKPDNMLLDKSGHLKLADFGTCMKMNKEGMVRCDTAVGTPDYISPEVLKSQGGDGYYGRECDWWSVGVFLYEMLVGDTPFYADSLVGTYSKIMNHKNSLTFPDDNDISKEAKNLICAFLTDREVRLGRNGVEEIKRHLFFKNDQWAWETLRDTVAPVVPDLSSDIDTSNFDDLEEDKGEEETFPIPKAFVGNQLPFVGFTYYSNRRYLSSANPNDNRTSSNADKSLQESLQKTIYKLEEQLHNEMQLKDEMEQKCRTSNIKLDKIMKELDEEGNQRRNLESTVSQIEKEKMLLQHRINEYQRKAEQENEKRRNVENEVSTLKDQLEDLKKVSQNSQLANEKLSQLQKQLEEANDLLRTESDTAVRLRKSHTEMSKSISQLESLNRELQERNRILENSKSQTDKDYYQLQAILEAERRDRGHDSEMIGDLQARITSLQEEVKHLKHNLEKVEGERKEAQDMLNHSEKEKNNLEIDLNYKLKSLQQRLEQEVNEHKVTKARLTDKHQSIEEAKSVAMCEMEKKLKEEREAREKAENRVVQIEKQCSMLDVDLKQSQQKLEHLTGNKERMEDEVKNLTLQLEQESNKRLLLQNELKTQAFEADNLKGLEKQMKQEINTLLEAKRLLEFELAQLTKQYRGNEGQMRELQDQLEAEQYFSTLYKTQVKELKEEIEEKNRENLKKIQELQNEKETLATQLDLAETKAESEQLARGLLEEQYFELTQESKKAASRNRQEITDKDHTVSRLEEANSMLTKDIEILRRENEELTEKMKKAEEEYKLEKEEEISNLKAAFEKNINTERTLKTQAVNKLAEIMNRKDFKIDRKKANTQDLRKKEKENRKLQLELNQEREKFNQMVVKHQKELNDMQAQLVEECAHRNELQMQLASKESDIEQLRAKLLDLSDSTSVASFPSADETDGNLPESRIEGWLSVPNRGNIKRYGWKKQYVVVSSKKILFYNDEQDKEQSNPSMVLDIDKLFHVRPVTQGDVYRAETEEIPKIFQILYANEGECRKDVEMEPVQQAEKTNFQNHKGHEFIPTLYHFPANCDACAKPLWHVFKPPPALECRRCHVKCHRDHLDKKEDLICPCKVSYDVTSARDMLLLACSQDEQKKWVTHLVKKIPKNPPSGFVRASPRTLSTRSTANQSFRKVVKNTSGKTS
Leukemia-associated Rho guanine nucleotide exchange factor (LARG), sequence (Q9NZN5 whole entry, species assumed): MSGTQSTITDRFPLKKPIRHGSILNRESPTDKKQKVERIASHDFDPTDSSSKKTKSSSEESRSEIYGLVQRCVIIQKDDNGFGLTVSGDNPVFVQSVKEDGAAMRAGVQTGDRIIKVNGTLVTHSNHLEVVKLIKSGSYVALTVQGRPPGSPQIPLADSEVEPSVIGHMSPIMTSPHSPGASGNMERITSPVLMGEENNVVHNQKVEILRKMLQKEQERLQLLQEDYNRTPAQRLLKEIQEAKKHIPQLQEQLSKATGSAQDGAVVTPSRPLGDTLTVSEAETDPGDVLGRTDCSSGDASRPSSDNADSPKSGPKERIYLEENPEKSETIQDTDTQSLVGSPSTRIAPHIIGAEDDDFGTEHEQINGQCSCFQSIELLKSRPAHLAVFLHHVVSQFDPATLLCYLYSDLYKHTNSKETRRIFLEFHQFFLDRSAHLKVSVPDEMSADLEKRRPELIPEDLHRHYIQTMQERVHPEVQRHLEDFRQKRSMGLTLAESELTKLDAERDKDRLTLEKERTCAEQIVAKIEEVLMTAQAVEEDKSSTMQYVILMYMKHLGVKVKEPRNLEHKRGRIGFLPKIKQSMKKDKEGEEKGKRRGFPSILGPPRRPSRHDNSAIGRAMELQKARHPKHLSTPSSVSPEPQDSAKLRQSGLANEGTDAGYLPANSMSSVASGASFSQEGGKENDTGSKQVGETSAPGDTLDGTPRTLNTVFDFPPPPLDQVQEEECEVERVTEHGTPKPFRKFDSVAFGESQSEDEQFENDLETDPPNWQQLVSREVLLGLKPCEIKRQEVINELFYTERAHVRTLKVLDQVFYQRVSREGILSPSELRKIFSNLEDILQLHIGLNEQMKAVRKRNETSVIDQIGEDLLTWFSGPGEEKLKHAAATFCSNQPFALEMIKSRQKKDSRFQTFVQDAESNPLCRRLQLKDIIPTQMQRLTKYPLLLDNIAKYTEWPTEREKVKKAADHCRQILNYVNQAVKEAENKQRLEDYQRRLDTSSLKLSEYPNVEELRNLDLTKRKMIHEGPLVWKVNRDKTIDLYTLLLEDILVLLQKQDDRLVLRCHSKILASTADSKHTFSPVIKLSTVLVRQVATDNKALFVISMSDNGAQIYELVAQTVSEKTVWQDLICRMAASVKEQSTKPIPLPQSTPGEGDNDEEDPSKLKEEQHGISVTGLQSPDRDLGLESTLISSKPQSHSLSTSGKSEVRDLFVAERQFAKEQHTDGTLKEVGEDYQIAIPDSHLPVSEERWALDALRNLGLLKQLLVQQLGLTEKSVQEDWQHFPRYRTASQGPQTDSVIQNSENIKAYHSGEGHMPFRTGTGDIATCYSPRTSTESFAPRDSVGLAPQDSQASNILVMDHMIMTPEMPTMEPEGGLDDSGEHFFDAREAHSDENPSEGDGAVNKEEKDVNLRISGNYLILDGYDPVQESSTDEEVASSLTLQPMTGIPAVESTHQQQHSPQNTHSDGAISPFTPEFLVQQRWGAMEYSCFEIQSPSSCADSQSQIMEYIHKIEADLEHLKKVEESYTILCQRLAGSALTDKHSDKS
RhoA, sequence (P61586 whole entry): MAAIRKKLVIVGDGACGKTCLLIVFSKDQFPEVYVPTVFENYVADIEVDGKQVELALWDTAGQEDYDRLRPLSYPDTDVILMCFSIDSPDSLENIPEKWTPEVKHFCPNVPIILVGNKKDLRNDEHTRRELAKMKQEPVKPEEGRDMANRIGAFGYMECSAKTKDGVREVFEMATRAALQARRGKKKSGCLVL
Cdc42, sequence (P60953 whole entry): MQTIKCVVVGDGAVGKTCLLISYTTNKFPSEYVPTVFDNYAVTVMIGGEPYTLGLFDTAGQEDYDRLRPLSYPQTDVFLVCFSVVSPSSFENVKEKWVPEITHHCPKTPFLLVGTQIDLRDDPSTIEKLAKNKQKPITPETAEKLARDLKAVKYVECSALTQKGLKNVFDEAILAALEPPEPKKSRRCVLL

On to `CCCOC(=O)c1cccc(-c2cc(C(=O)Nc3ccncc3F)ccc2CN)c1` [Sovesudil], for which the “Intraocular Pressure (IOP)” value in series [1] (ocular normotensive and acute hypertensive male rabbits) is “effectively reduces Intraocular Pressure”. The hyperemia result in series [1] (rabbits) is “without causing distinct hyperemia”. The results for the IC50 on ROCK1 and on ROCK2 were 3.7 nM and 2.3 nM, respectively.
Take `Cc1cccc(COc2cccc(/C=C3\C(=O)NN(c4ccccc4)C3=O)c2)c1` [Compound Y16]: the Kd in series [2] was 76 nM. In the series on NIH 3T3 cells, the “RhoA-GTP formation induced by serum” value is on record as “inhibit RhoA-GTP formation”; the “serum or SDF-1α-induced phospho-MLC and phospho-FAK formation” value is recorded as “efficiently inhibits”.
Turning to `Br.Oc1cc2c(cc1O)C(Cc1cccc3ccccc13)NCC2` (stereo not shown) [YS-49], in the series on iNOS gene expression, the “iNOS gene expression induced by LPS and/or cytokines” value is listed as “suppresses iNOS gene expression”. For the same compound, the IC50 was 30000 nM in the series with RAW 264.7 and 22000 nM in the series on RAVSMC.
For `COc1ccc(CC(=O)Nc2nc3c(s2)CCc2ccccc2-3)cc1OC` [ZINC00881524], in series [3], the “levels of ROCK1” value was “decreases levels of ROCK1”.
As for `N[C@H](Cc1c[nH]c2ccccc12)C(=O)N/N=C/c1ccc2nccnc2c1` [Rhosin hydrochloride], the Kd on RhoA is around 400 nM.
In the case of `O=C(Nc1ccc(Cl)cc1)C1CCCN(C(=O)c2cccc(-c3ccco3)c2)C1` (stereo not shown) [CCG-203971], in the series with PC-3 cell, the IC50 is 4200 nM. Further, the “TGF-β-induced MKL1 expression” value with MKL1 expression is “significantly represses”.
`O=S(=O)(c1cccc2cnccc12)N1CCNCC1` [HA-100]: the Ki at PKC is 6500 nM; on MLCK it was 61000 nM. The IC50 was 12000 nM with PKC (read-out: IC50 for protein kinase C (PKC)), 8000 nM in the series with PKA (read-out: IC50 for cAMP-dependent protein kinase (PKA)), 4000 nM in [4] and 240000 nM in the series on MLCK (read-out: IC50 for MLC-kinase).
As for `COc1ccc2c(c1)C[C@H](C(=O)Nc1ccc(-c3cn[nH]c3)cc1OCCN(C)C)CO2` [Chroman 1], the IC50 in the series with MRCK was 150 nM.
Regarding `COc1c(B(O)O)cccc1-c1nc2ccc3[nH]ncc3c2c2c1CCC2` [HSD1590], the Kd at ROCK [5] is below 2 nM. In series [6], the migration entry is “impressive attenuation in migration”.
Regarding `CC1=C(C(=O)Nc2cc3cn[nH]c3cc2F)C(c2ccc(Cl)cc2F)N=C(c2ccnc(Cl)c2)N1` (stereo not shown) [GSK-25], the IC50 on ROCK1 was 7 nM. Also, the blood pressure result in [7] is on record as “drop in blood pressure”.
On to `CC(ONC(=O)c1cc(C(F)(F)F)cc(C(F)(F)F)c1)C(=O)Nc1ccc(Cl)cc1` (stereo not shown) [CCG-1423], for which the IC50 with Rho signaling is 1500 nM. Besides, the “glucose uptake and tolerance” value in series [8] was “improved glucose uptake and tolerance”. Also, the “spontaneous PC-3 cell invasion through a Matrigel matrix” value in [9] is “selectively inhibited”.
In the case of `Cc1ccc(NC(=O)c2cccc(OCc3c(C)noc3C)c2)cc1S(N)(=O)=O` [Compound Z62954982], the “activity of other Rho GTPases” value in [10] is listed as “without affecting the activity”. Besides, at Rac1, the IC50 is 12000 nM and the “times more effective than NSC23766” value is 4 times.
As to `Cc1ccc(C(=O)OCc2ccc([C@@H](CN)C(=O)Nc3ccc4cnccc4c3)cc2)c(C)c1` [AR-13324], the intraocular pressure entry in series [11] is recorded as “reduced intraocular pressure”.
As to `CC(C)NC(=O)COc1cccc(-c2nc(Nc3ccc4[nH]ncc4c3)c3ccccc3n2)c1` [Belumosudil], the “Tsp-1 and CTGF mRNA levels” value in the series on PASMC was “significant down-regulations”. For the same compound, the infarct volume entry in series [12] was “dose-dependently reduces infarct volume”.
For `Cc1c[nH]c2ncnc(N3CCC(CN)(C(=O)Nc4cccc(OC(=O)N(C)C)c4)CC3)c12` [LX7101], in the series on PKA (read-out: IC50 for PKA), the IC50 was below 1 nM.
Take `O=S(=O)(c1cccc2c(I)cccc12)N1CCCNCC1` [ML-07 hydrochloride]: the IC50 in the series on MLCK (read-out: IC50 for MLCK) was 300 nM.
As to `N[C@H](CNc1nc(-c2ccncc2)nc2sc3c(c12)CCCC3)Cc1ccccc1` [CRT0066854], the IC50 on ROCK2 was 620 nM.
Turning to `Cc1cncc2cccc(S(=O)(=O)N3CCCNC[C@@H]3C)c12` [Compound H-1152], the Ki at PKC was 9270 nM; at ROCK [13], 1.6 nM; on MLCK it was 10100 nM. For the same compound, the neurite length entry in the series on neuronal cultures (10 μM, BMP4 and LIF cultures) is reported as “increases neurite length”. The neuronal survival entry in the series on neuronal cultures (0.5-10 μM) is “no decreased neuronal survival”.
As to `O=C(Nc1cn[nH]c1-c1ccccn1)c1nn(C2CCNCC2)cc1Cl` [BDP5290], the values for the IC50 at ROCK1, at ROCK2 and on MRCKα were 5 nM, 50 nM and 10 nM, respectively. In addition, in series [14], the “MLC phosphorylation induced by MRCKβ” value is “completely inhibits”.
For `COCc1c(C(C)C)nc(C(C)C)c(/C=C/[C@@H](O)C[C@@H](O)CC(=O)O)c1-c1ccc(F)cc1` [Cerivastatin], the Ki at HMG-COA reductase is 1.3 nM. For the same compound, the “proliferation and invasiveness of MDA-MB-231 cells” value in the series with MDA-MB-231 cells was “inhibits proliferation and invasiveness”.
Take `CCn1c(-c2nonc2N)nc2cnc(Oc3cccc(NC(=O)c4ccc(OCCN5CCOCC5)cc4)c3)cc21` [GSK269962A]: the blood pressure entry in series [7] is “dose-dependent reduction in blood pressure”.
With `NS(=O)(=O)c1ccc(N2N=C(c3ccccc3)CC2c2ccccc2)cc1` (stereo not shown) [MLS-573151], the concentration for a half-maximal effect (EC50) (usually the concentration needed to bring the measured effect to its halfway point) at Cdc42 is 2000 nM. Besides, the “fluorescence intensities of phagocytosed beads or bacteria (phagocytosis efficiency)” value in the series on granulocytes was “markedly reduced”. For the same compound, in [15], the “activity against other GTPases family members” value is “inactive”.
As for `c1cc(-c2ncco2)cc(-c2nnc(Nc3ccc4[nH]ncc4c3)s2)c1` [ROCK2-IN-2], at ROCK2, the IC50 was below 1000 nM.
Take `O=C(O)/C=C/c1cccc(Nc2cnc3ccccc3n2)c1` [HL07]: the “phenylephrine (PE)-induced contraction” value with rat aorta was “inhibited”.
For `C[C@@H](N)c1ccc(C(=O)Nc2ccncc2)cc1` [Wf-536, (+)-(R)-4-(1-aminoethyl)-N-(4-pyridyl)benzamide monohydrochloride], in the series with B16 melanoma [16], the “in vivo pulmonary metastasis of B16 melanoma” value is given as “effectively reduced”. In the series with B16 melanoma [17], the “in vitro invasion of B16 melanoma” value is recorded as “effectively reduced”.
As to `N[C@H](Cc1c[nH]c2ccccc12)C(=O)N/N=C/c1ccc2nccnc2c1` [Rhosin], the “lung metastasis of B16BL6 and 4T1 cells” value with B16BL6 and 4T1 cells is reported as “abrogates the lung metastasis”. Also, the “interaction with Cdc42 or Rac1, or LARG” value in series [18] is “does not interact”.
`O=c1[nH]ccc2cc(OC3CCNCC3)ccc12` [SAR407899]: at rat ROCK-2, the Ki is 41 nM. For the same compound, the IC50 on ROCK2 was 135 nM. Further, the “ROCK-mediated phosphorylation of MYPTT696” value in series [19] is given as “inhibits”.
